Reference: PubChem BioAssay (NCI)
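How tested: cells in 96-well plates exposed to compound for 48 hours at five concentrations. GI50 is the concentration that inhibits growth by half. Definition used: TGI = concentration required for complete inhibition of growth.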

Legend:
Experiment in all cases: NCI anticancer screen, dose series, 48 h
DU-145 prostate = test system: DU-145 prostate
U251 CNS = test system: U251 CNS
SF-268 CNS = test system: SF-268 CNS
BT-549 breast = test system: BT-549 breast
786-0 renal = test system: 786-0 renal
SR leukemia = test system: SR leukemia
SF-539 CNS = test system: SF-539 CNS
KM12 colon = test system: KM12 colon
OVCAR-4 ovarian = test system: OVCAR-4 ovarian
UO-31 renal = test system: UO-31 renal

Compound | GI50 (DU-145 prostate) | TGI (DU-145 prostate) | GI50 (U251 CNS) | TGI (U251 CNS) | GI50 (SF-268 CNS) | TGI (SF-268 CNS) | GI50 (BT-549 breast) | TGI (BT-549 breast) | GI50 (786-0 renal) | TGI (786-0 renal) | GI50 (SR leukemia) | TGI (SR leukemia) | GI50 (SF-539 CNS) | TGI (SF-539 CNS) | GI50 (KM12 colon) | TGI (KM12 colon) | GI50 (OVCAR-4 ovarian) | TGI (OVCAR-4 ovarian) | GI50 (UO-31 renal) | TGI (UO-31 renal)
O=C([O][Sn]([O]C(=O)c1ccccn1)([c]1ccccc1)[c]1ccccc1)c1ccccn1 | 1.93 µM | 4.19 µM | 1.95 µM | 4.62 µM | 2.76 µM | 9.09 µM | 8.25 µM | 20.7 µM | 5.14 µM | 16.8 µM | 1.22 µM | 11.3 µM | 6.65 µM | 19.7 µM | 13.2 µM | 25.9 µM | 7.53 µM | 20.3 µM | 2.05 µM | 4.66 µM
CN(C)CCSS(=O)(=O)O | – | > 100 µM | – | > 100 µM | – | > 100 µM | – | > 100 µM | – | > 100 µM | – | > 100 µM | – | > 100 µM | – | > 100 µM | – | > 100 µM | – | > 100 µM
O=C(Nn1c(-c2ccccc2)nc2ccccc2c1=O)c1ccccc1O | – | > 100 µM | – | > 100 µM | – | > 100 µM | – | > 100 µM | – | > 100 µM | – | > 100 µM | – | > 100 µM | – | > 100 µM | – | > 100 µM | – | > 100 µM
COC(=O)C1C(O)C(C)C(O)C(C)C=C(C)C2=C3C(=C(C)C(=O)c4c(O)c(c(C)c(OC(C)=O)c43)NC(=O)C(C)=C/C=C\C(C)C(O)C(C)C1O)OCO2 (stereo not drawn) | – | > 100 µM | – | > 100 µM | – | 44.9 µM | – | 39.2 µM | – | > 100 µM | – | 47.6 µM | – | > 100 µM | – | 99.6 µM | – | > 100 µM | – | > 100 µM
O=C(NCCc1ccccn1)OCc1nc2nc(Cl)nc(N3CCOCC3)c2[nH]1 | 1.57 µM | 3.04 µM | 3.39 µM | 12.2 µM | 1.69 µM | 3.8 µM | 2.22 µM | 6.83 µM | 1.75 µM | 3.52 µM | 1.97 µM | > 100 µM | 1.5 µM | 2.85 µM | 2.63 µM | 10.8 µM | 1.7 µM | 3.85 µM | 1.28 µM | 2.55 µM
COc1cc2c(cc1OCCCCCCN1CCN(CC(=O)Nc3ccc(Cl)cc3C(=O)c3ccccc3Cl)CC1)N=CC1CCCN1C2=O (stereo not drawn) | 0.254 µM | 0.715 µM | 0.258 µM | 0.725 µM | – | – | 0.252 µM | 0.898 µM | 0.339 µM | 0.823 µM | 0.0447 µM | 0.194 µM | 0.289 µM | 0.74 µM | – | – | 0.419 µM | 1.25 µM | 0.242 µM | 0.681 µM
Cc1nc(Nc2cccnc2)sc1C(=O)/C=C/c1ccc(Cl)cc1 | 3.57 µM | 19.8 µM | 1.81 µM | 3.72 µM | 4.34 µM | > 100 µM | 2.2 µM | 7.22 µM | 1.95 µM | 6.48 µM | 2.3 µM | > 100 µM | 2.03 µM | 5.26 µM | 1.98 µM | 4.19 µM | 5.14 µM | > 100 µM | 1.81 µM | 4.61 µM
Cc1nc(Nc2ccccn2)sc1C(=O)/C=C/c1ccc(Cl)cc1 | 0.383 µM | > 71.5 µM | 0.37 µM | > 47.3 µM | 0.974 µM | > 100 µM | 0.344 µM | 8.64 µM | 0.549 µM | > 47.2 µM | 0.518 µM | > 100 µM | 0.252 µM | 0.812 µM | 0.377 µM | 15.9 µM | 0.778 µM | > 100 µM | 0.662 µM | 15 µM
Cc1nc2c(n1C)C(=O)c1ccccc1C2=O | 51.3 µM | > 100 µM | 63.9 µM | > 100 µM | > 100 µM | > 100 µM | > 100 µM | > 100 µM | > 100 µM | > 100 µM | 48.9 µM | > 100 µM | 85.5 µM | > 100 µM | 59.7 µM | > 100 µM | 43.5 µM | > 100 µM | 77.6 µM | > 100 µM
C1=C2CCCC3=Cc4ccccc4OC23Oc2ccccc21 | 3.73 µM | 69.1 µM | 4.54 µM | > 100 µM | 4.74 µM | > 100 µM | 3.73 µM | 73.7 µM | 6.41 µM | > 100 µM | 2.82 µM | > 100 µM | 1.92 µM | 5.01 µM | 3.61 µM | 56.7 µM | 6.12 µM | > 100 µM | 4.86 µM | > 100 µM
Cc1nc2ccc(NC(=O)CCNC(=O)CCCc3ccc(CC(C(=O)O)C(=O)O)cc3)cc2s1 | > 100 µM | > 100 µM | > 100 µM | > 100 µM | > 100 µM | > 100 µM | > 100 µM | > 100 µM | > 100 µM | > 100 µM | > 100 µM | > 100 µM | > 100 µM | > 100 µM | > 100 µM | > 100 µM | > 100 µM | > 100 µM | > 100 µM | > 100 µM
COc1ccc(-c2nc(-c3nc4ccc(F)cc4[nH]3)c3ccccn23)cc1 | 10.7 µM | 40.2 µM | 13.6 µM | 51.3 µM | 7.2 µM | 57.8 µM | 4.84 µM | 22.9 µM | 8.82 µM | 61.5 µM | 6.63 µM | > 100 µM | 10.4 µM | 45.2 µM | 7.03 µM | > 100 µM | 6.92 µM | > 100 µM | 6.99 µM | 56.2 µM
Cc1ccc(N=Nc2c(O)ccc3ccccc23)cc1 | – | > 100 µM | – | > 100 µM | – | > 100 µM | – | > 100 µM | – | > 100 µM | – | > 100 µM | – | – | – | > 100 µM | – | > 100 µM | – | > 100 µM
CSCCCNC(=O)c1ccc2c(c1)/C(=C/c1[nH]c(C)cc1C)C(=O)N2 | 0.7 µM | > 100 µM | 0.675 µM | > 100 µM | 1.98 µM | > 100 µM | 2.7 µM | > 100 µM | 1.93 µM | > 100 µM | 0.476 µM | 61.4 µM | 0.734 µM | > 100 µM | 0.43 µM | > 100 µM | – | – | 0.347 µM | > 100 µM
